Assay results: patent US20260315446A1, “ANTIFUNGAL COMPOUNDS AND USES THEREOF” (priority 2023, published 2026)
Entries after “also recorded” stand apart in the source; their conditions may differ. Read-outs that look alike come from different tables or passages of the source.

Key:
[1] = tested on: germinal center (GC) B cells; experiment: In vivo immunosuppression, germinal center B cells (Example 1); set-up: species or system mouse (C57BL/6); conditions: daily i.p., FK506 5 mg/kg or JH-FK-05 60 mg/kg; day 7
Procedure: Based on the in vitro evidence of reduced immunosuppressive activity of JH-FK-05, it was hypothesized that this reduction would translate into reduced immunosuppression in an in vivo model. The murine model for immunosuppression measures the T cell-dependent proliferation of two immune cell subtypes in response to immunization with an antigen. Animals were treated daily via intraperitoneal (i.p.) injection with vehicle, 5 mg/kg FK506, or 60 mg/kg JH-FK-05, beginning on day −1 and ending on day 7. […] On day 0, animals were immunized with NP-OVA to stimulate T cell-dependent signaling that would result in proliferation of T follicular helper (Tfh) cells and germinal center (GC) B cells. Animals were sacrificed on day 7, and the proportions of Tfh and GC B cells in the lymph nodes were measured. […]
Groups of 6 female C57BL/6 mice (Jackson Laboratory) were treated daily by intraperitoneal (i.p.) injection with about 100 μL vehicle, 5 mg/kg FK506, or 60 mg/kg JH-FK-05 beginning on day −1. […] Mice were treated and monitored daily until they were sacrificed on day 7. Draining lymph nodes were harvested on day 7, and the populations of T follicular helper cells and GC B cells were analyzed by flow cytometry. Tfh and GC B cells were measured from T Cell Receptor β (TCRβ^+) CD4^+CD44^hi cells and TCRβ^−CD19^+ cells, respectively.

[2] = Pharmacokinetics in whole blood; type: in vivo, mouse (CD-1); conditions: for Cmax / Tmax / AUC / CL/F / half-life: mouse, in vivo, ip, 40 mg/kg, 40 mg/kg i.p. single dose, whole blood; for AUC: read-out: AUC (area under the curve); for CL/F: read-out: CI/F (clearance as Dose/AUCINF) (converted)
Procedure: For the lead compound JH-FK-08, the mechanism of action resulting in antifungal activity was tested for conservation of calcineurin inhibition. To probe the JH-FK-08 mechanism of action, MICs of JH-FK-08 were determined with fungal mutants that lack the drug-binding protein FKBP12 or have mutations in the binding site on calcineurin that prevent FKBP12-FK506 binding and inhibition. […] Taken together, these findings support the hypothesis that JH-FK-08 requires FKBP12 for antifungal activity, and the target of the FKBP12-JH-FK-08 complex is calcineurin. The length of time that drugs are active in vivo is critical information relevant to drug development, and the time frame of drug activity can have a drastic impact on treatment regimen and efficacy. Therefore, the pharmacokinetic profiles of FK506 and JH-FK-08 were investigated. Three male and three female CD1 mice were administered a single dose of JH-FK-08 or FK506 at 40 mg/kg. Whole blood samples were taken over a 24-hour period, and the drug concentration remaining in the blood was determined. Pharmacokinetic parameters were calculated using a non-compartmental approach (see, Gabrielsson J, Weiner D. 2012. Methods Mot Biol Clifton NJ 929:377-389). […] When assessing specific pharmacokinetic measures, sex differences began to emerge.
Male (n=3, avg. 28 g) and female (n=3, avg. 25 g) CD-1 mice were injected intraperitoneally with 40 mg/kg of either JH-FK-08 or FK506. The drug formulation was 10% Kolliphor/10% ethanol/80% PBS given as 10 μL/g body weight (i.e., 200 μL per 20 g mouse). Blood (~30 μL) was collected serially (“tail snip”) at 10, 20, and 45 min and 1.5, 3, 6, 12, and 24 h into vials containing […] of 75 mg/mL K2EDTA in water and immediately frozen until the day of liquid chromatography-tandem-mass spectroscopy (LC/MS/MS) analysis. Blood concentration/time data were utilized to calculate relevant PK parameters using the non-compartmental approach and extravascular administration model within WinNonlin (2.1) software.
In a 0.5-mL polypropylene vial, 10 μL blood and 20 μL of acetonitrile fortified with 100 ng/mL FK520 (internal standard) were vigorously agitated in the FastPrep FP120 apparatus (Thermo-Savant) at speed four for 45 s. After centrifugation for 5 min at 16,000 rpm, 20 μL of supernatant was transferred to a polypropylene autosampler vial. LC/MS/MS (Agilent 1200 series HPLC and Sciex/Applied Biosystems API 5500 QTrap) was utilized to quantify JH-FK-08 and FK506 in mouse blood. Analytical column: Agilent Eclipse Plus (C18, 1.8 μm, 50×4.6 mm), at 40° C. Mobile phase: (A) 0.1% formic acid, 10 mM ammonium acetate, 2% acetonitrile in water, and (B) methanol. Elution gradient: 0-0.1 min 30%-98% B, 0.1-1.5 min 98% B, 1.5-1.6 min 98%-30% B, and 1.6-2.1 min 30% B. Run time: 5 min. Injection volume: 10 μL. Mass spectrometer parameters (voltages, gas flow, and temperature) were optimized by infusion of 100 ng/mL of analytes in the mobile phase at 10 μL/min using the Analyst 1.6.2 software tuning module. The MS/MS (m/z) transitions used for quantification were 864.4/846.5 (JH-FK-08), 821.4/768.5 (FK506), and 809.4/756.5 (FK520, internal standard). A set of calibrator samples in drug-free blood was prepared by adding appropriate amounts of pure analyte (JH-FK-08 or FK506) in the […] range. The calibration samples were analyzed alongside the experimental samples. The accuracy acceptance criterion was 85% for each but the lowest level (2.43 ng/mL, 80%, LLOQ). Analyst 1.6.2 software was used for data acquisition, integration of the chromatograms, calibration curve calculation, and quantification of the study samples.

[3] = females, read-out: t1/2 (3-12 h) (half-life) (converted)
[4] = females, read-out: t1/2 (12-24 h) (half-life) (converted)
[5] = males, read-out: t1/2 (3-12 h) (half-life) (converted)
[6] = males, read-out: t1/2 (12-24 h) (half-life) (converted)

Row | SMILES | proliferation/presence of GC B cells [1] | whole blood drug concentration over time versus FK506 ([2]; 40 mg/kg single dose) | Cmax ([2]; females) [ng/mL] | Tmax ([2]; females) [h] | AUC ([2]; females) [ng·h/mL] | CL/F ([2]; females) [mL/min/kg] | half-life [2, 3] [h] | half-life [2, 4] [h] | Cmax ([2]; males) [ng/mL] | Tmax ([2]; males) [h] | AUC ([2]; males) [ng·h/mL] | CL/F ([2]; males) [mL/min/kg] | half-life [2, 5] [h] | half-life [2, 6] [h]
1 | CC[C@@H]1/C=C(\C)C[C@H](C)C[C@H](OC)[C@H]2O[C@@](O)(C(=O)C(=O)N3CCCC[C@H]3C(=O)O[C@H](/C(C)=C/[C@@H]3CC[C@@H](O)[C@H](OC)C3)[C@H](C)[C@@H](O)C/C1=N/NC(C)=O)[C@H](C)C[C@@H]2OC [JH-FK-05] | did not reduce the presence of either cell type and was statistically indistinguishable from the vehicle treatment | – | – | – | – | – | – | – | – | – | – | – | – | –
2 | CC[C@@H]1/C=C(\C)C[C@H](C)C[C@H](OC)[C@H]2O[C@@](O)(C(=O)C(=O)N3CCCC[C@H]3C(=O)O[C@H](/C(C)=C/C3CC[C@@H](O)[C@H](OC)C3)[C@H](C)[C@@H](O)C/C1=N/NC(=O)OC)[C@H](C)C[C@@H]2OC (stereo partly drawn) [JH-FK-08] | – | No significant differences across groups were observed in whole blood samples of drug concentration over time; also recorded: no statistically significant difference between groups | 7500 | 2.5 | 31400 | 21.5 | 1.14 | 1.88 | 4070 | 1.25 | 15600 | 46.4 | 1.29 | 2.26
3 | C=CCC1C=C(C)CC(C)CC(OC)C2OC(O)(C(=O)C(=O)N3CCCCC3C(=O)OC(C(C)=CC3CCC(O)C(OC)C3)C(C)C(O)CC1=O)C(C)CC2OC (stereo not drawn) [FK506, reference compound] | significantly reduced the proliferation | – | 5960 | 1.11 | 27100 | 25.9 | 1.35 | 3.59 | 4510 | 0.75 | 15200 | 49.4 | 1.48 | 2.46
